# From US12630804B2, “Blood brain barrier model” (UNIVERSITY OF LANCASHIRE, priority 2016, dated 2026)
# Tested on: blood brain barrier model
# Assay: Permeability of test/known compounds across the blood brain barrier model (TEER and fluorescence in basolateral compartment)
# Type: in vitro ADME, human
# Conditions: added to apical side; TEER and appearance in basolateral compartment, 0.5-6 h; aptamers 100 nM cy5-tagged
# Method: The blood brain barrier model was exposed to a test/known compounds to determine permeability. The final concentration of compound introduced to the apical well was determined previously using a viability assay, and a concentration chosen that minimised toxicity to the BBB cells (<IC50). Test compounds (short DNA oligonucleotide glioma selective aptamers (100 nM) tagged with cy5 (GL21, scrambled) and lipid nanoparticles (NPs) loaded with 0.33 μg/ml docetaxel or 2.87 μg/ml curcumin tagged with rhodamine123 and transferrin ligand) were prepared in house. When the TEER values for the BBB model peaked, 3.33 μg/ml Evans Blue Dye (EBD) was added to the apical side of the BBB model to determine if the barrier formed was intact. The test and control compounds were introduced to the well and time dependent TEER measurements were taken along with fluorescent measurements of samples at time points between 0.5-6 h from the basolateral side of the well for determination of appearance of the fluorescent tagged compounds. […] The activity was calculated as % fluorescence relative to the stock concentration of the NPs and then plotted
# The blood brain barrier model was exposed to a test compound and the permeability of the barrier to said test compound was measured and compared to the permeability of the blood brain barrier model to known compounds. […]
compound,measurement,value
"Cc1cc(-c2ccc(N=Nc3ccc4c(S(=O)(=O)[O-])cc(S(=O)(=O)[O-])c(N)c4c3O)c(C)c2)ccc1N=Nc1ccc2c(S(=O)(=O)[O-])cc(S(=O)(=O)[O-])c(N)c2c1O.[Na+].[Na+].[Na+].[Na+] [Evan's blue, Evan's Blue]",permeation across blood brain barrier model,no permeability
